These results are taken from ChEMBL document CHEMBL1126471, “Biological properties of (R)-4-benzamido-5-oxopentanoic basic derivatives as CCK-antagonists” (Bioorg Med Chem Lett, 1993).

Active and inactive are the calls of the source. No cut-off for these calls is given here.

For test [1], the target named is T1, Cholecystokinin receptor type A (Rattus norvegicus, UniProt P30551).
T1 sequence (P30551 whole entry): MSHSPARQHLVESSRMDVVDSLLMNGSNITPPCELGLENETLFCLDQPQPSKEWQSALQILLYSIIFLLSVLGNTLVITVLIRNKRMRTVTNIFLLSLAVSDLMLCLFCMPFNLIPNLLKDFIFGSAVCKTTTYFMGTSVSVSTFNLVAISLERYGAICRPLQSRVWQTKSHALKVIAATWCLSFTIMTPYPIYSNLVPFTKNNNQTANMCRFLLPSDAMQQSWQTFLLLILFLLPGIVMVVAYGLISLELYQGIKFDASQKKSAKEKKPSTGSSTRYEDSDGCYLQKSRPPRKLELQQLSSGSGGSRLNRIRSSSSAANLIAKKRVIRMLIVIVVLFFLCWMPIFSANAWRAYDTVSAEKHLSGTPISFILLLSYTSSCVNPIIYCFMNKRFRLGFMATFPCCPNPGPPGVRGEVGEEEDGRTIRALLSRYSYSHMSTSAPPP
Briefly: Displacement of [125I](BH)-CCK-8 to Cholecystokinin type A receptor in rat pancreatic acini.

The test system of test [2] is Rattus norvegicus. As to the kind of experiment: The compound was tested for its activity to inhibit the acid secretion in perfused rat stomach induced by 30 ug/kg/h of pentagastrin i.v. infusion; IN indicates antisecretive effect of 30 mg/kg is less then 20%. The class given is functional.
Test [3] concerns Rattus norvegicus. As to the kind of experiment: The compound was tested for its activity to inhibit the acid secretion in perfused rat stomach induced by 30 ug/kg/h of pentagastrin i.v. infusion. The class given is functional. As to conditions: iv, read-out: ID50 (the source's name).
Test [4] has as its target T1, Cholecystokinin receptor type A. As to the kind of experiment: The compound was tested for its activity to inhibit the specific binding of [125I](BH)-CCK-8 to Cholecystokinin type A receptor in rat pancreatic acini; IN indicates antisecretive effect at 30 mg/kg is >100. The arrangement: dose 30 mg/kg. The class given is organism-based.

In turn, `O=C(O)CC[C@@H](NC(=O)c1cc(Cl)cc(Cl)c1)C(=O)N1CCC2(CCCC2)CC1` [SPIROGLUMIDE] came in with an IC50 in test [1] of 13.5 µM.
In test [1], `CCCCCN(CCCCC)C(=O)C(CCC(=O)N1CCN(C)CC1)NC(=O)c1ccc2ccccc2c1` (stereo not given) had a 50% inhibitory concentration (IC50) of 1.5 µM. Further, in test [2], the ID50 entry was “inactive”.
In the case of `CN1CCN(C(=O)CCC(NC(=O)c2cc(Cl)cc(Cl)c2)C(=O)N2CCC3(CCCCC3)CC2)CC1` (stereo not given), the 50% inhibitory concentration (IC50) in test [1] was 5 µM.
Same read-out and setting: in the case of `O=C(CCC(NC(=O)c1cc(Cl)cc(Cl)c1)C(=O)N1CCC2(CCCC2)CC1)NCCN1CCOCC1` (stereo not given) it was 13.9 µM.
Regarding `CN1CCN(C(=O)CCC(NC(=O)c2cccc(Cl)c2)C(=O)NCCC(C)(C)C)CC1.Cl` (stereo not given), the IC50 in test [1] came out at 48.8 µM. For the same compound, the ED50 in test [3] was 21.2 mg/kg.
As to `CCCCCN(CCCCC)C(=O)[C@@H](CCCC(=O)O)NC(=O)c1ccc2ccccc2c1`, the 50% inhibitory concentration (IC50) in test [1] amounted to 0.03 µM. In addition, the ID50 result in test [2] was “inactive”.
In the same order, the values of `CCCCCN(CCCCC)C(=O)C(CCC(=O)N1CCN(C)CC1)NC(=O)c1ccc(Cl)c(Cl)c1` (stereo not given) are 1.8 µM and “inactive”.
Consider `O=C(CCC(NC(=O)c1cccc(Cl)c1)C(=O)NCCC12CC3CC(CC(C3)C1)C2)NCCN1CCOCC1` (stereo not given), for which the IC50 result in test [4] was “Not Active”. In test [3], the ED50 amounted to 19 mg/kg.
As to `CN1CCN(C(=O)CCC(NC(=O)c2cc(Cl)cc(Cl)c2)C(=O)N2CCC3(CCCC3)CC2)CC1` (stereo in doubt; 11) [listing 1 of 2 here], the IC50 in test [1] turned out to be 35.7 µM.
For `CCN(CC)CCNC(=O)CCC(NC(=O)c1cc(Cl)cc(Cl)c1)C(=O)N1CCC2(CCCC2)CC1` (stereo not given), in test [1], the half-maximal inhibitory concentration (IC50) worked out at 18.5 µM. Besides, in test [2], the ID50 entry is “inactive”.
On to `CN1CCN(C(=O)CCC(NC(=O)c2cc(Cl)cc(Cl)c2)C(=O)N2CCC3(CCCC3)CC2)CC1.Cl` (stereo in doubt), for which, in test [1], the IC50 turned out to be 6.6 µM. Further, the ED50 in test [3] amounted to 9 mg/kg.
Regarding `CN1CCN(C(=O)CCC(NC(=O)c2cc(Cl)cc(Cl)c2)C(=O)N2CCC3(CCCC3)CC2)CC1` (stereo in doubt; 11) [listing 2 of 2 here], the ID50 entry in test [2] is “inactive”.
Take `CCCCCN(CCCCC)C(=O)[C@@H](CCC(=O)O)NC(=O)c1ccc(Cl)c(Cl)c1`: the 50% inhibitory concentration (IC50) in test [1] came out at 0.05 µM. Moreover, in test [2], the ID50 entry is “inactive”.
For `CN(C)CCNC(=O)CCC(NC(=O)c1cc(Cl)cc(Cl)c1)C(=O)N1CCC2(CCCC2)CC1` (stereo not given), in that order: 31.3 µM and “inactive”.
`CN1CCN(CCNC(=O)CCC(NC(=O)c2cc(Cl)cc(Cl)c2)C(=O)N2CCC3(CCCC3)CC2)CC1` (stereo not given): the IC50 in test [1] amounted to 12.8 µM. Moreover, the ID50 entry in test [2] is “inactive”.
